From patent EP0440303A1 (PROBICOM RESEARCH B.V., priority 1990, dated 1991)
Where a SMILES comes first, the peptide text is derived from it.

B1: tripeptidase of L.lactis subsp. cremoris Wg2 (Lactococcus cremoris) (protein)
chain: MKYEKLLPRFLEYVKVNTRSDENSTTTPSTQALVEFAHKMGEDMKALGLKDVHYLESNGYVIGTIPANTDKKVRKIGLLAHLDTADFNAEGVNPQILENYDGESVIQLGDTEFTLDPKDFPNLKNYKGQTLVHTDGTTLLGSDDKSGVAEIMTLADYLLNINPDFEHGEIRVGFGPDEEIGVGADKFDVADFDVDFAYTVDGGPLGELQYETFSAAGAVIEFQGKNVHPGTAKNMMVNALQLAIDYHNALPEFDRPEKTEGREGFFHLLKLDGTPEEARAQYIIRDHEEGKFNERKALMQEIADKMNAELGQNRVKPLIKDQYYNMAQIIEKDMSIIDIAKKAMENLDIAPIIEPIRGGTDGSKISFMGLPTPNLFAGGENMHGRFEFVSVQTMEKAVDTLLEIIRLNNEVAK
notes: the resulting supernatant (i.e. cell-free extract) was used for enzyme isolation; made in house; host or cells: Natural producer L. lactis subsp. cremoris Wg2 (proteinase-negative variant), not recombinant; Purified by DEAE-Sephacel, Phenyl-Sepharose, Sephadex G-100 SF and HPLC TSK G3000 SW

These molecules were tested against T1, tripeptidase of L.lactis subsp. cremoris Wg2 (Lactococcus lactis subsp. cremoris, UniProt P0C2T7) (assay: Substrate specificity: peptide hydrolysis analysed by TLC). Conditions: peptide hydrolysis by the purified peptidase, 2 mM substrate in 20 mM HEPES (pH 7.0), 60 min at 30°C.
T1 sequence (P0C2T7 1-413): B1 chain
Assay type: biochemical
Design: key: + : hydrolysis; - : no hydrolysis

| Molecule | activity |
| --- | --- |
| CC(C)CC(NC(=O)CNC(=O)CN)C(=O)O (stereo not shown) | + |
| C[C@H](N)C(=O)N[C@@H](C)C(=O)O [Ala2] (H-Ala-Ala-OH) | - |
| C[C@H](N)C(=O)N[C@@H](C)C(=O)N[C@@H](C)C(=O)O [Ala3] | + |
| C[C@H](N)C(=O)N[C@@H](C)C(=O)N[C@@H](C)C(=O)N[C@@H](C)C(=O)O [Ala4] (H-AAAA-OH) | - |
| C[C@H](N)C(=O)N[C@@H](C)C(=O)N[C@@H](C)C(=O)N[C@@H](C)C(=O)N[C@@H](C)C(=O)O [Ala5] | - |
| C[C@H](N)C(=O)N[C@@H](C)C(=O)N[C@@H](C)C(=O)N[C@@H](C)C(=O)N[C@@H](C)C(=O)N[C@@H](C)C(=O)O [Ala6] | - |
| C[C@H](N)C(=O)N[C@@H](CC(=O)O)C(=O)O [Ala-Asp] (H-Ala-Asp-OH) | - |
| C[C@H](N)C(=O)N[C@@H](Cc1cnc[nH]1)C(=O)N[C@@H](C)C(=O)O [Ala-His-Ala] (H-Ala-His-Ala-OH) | + |
| C[C@H](N)C(=O)N1CCC[C@H]1C(=O)N[C@@H](C)C(=O)O [Ala-Pro-Ala] (H-Ala-Pro-Ala-OH) | - |
| C[C@H](N)C(=O)N1CCC[C@H]1C(=O)N[C@@H](Cc1ccccc1)C(=O)O [Ala-Pro-Phe] (H-Ala-Pro-Phe-OH) | - |
| CC(C)CC(NC(=O)C(NC(=O)C(C)N)C(C)C)C(=O)O (stereo not drawn) [Ala-Val-Leu] | + |
| N=C(N)NCCCC(N)C(=O)NCC(=O)NCC(=O)O (stereo not drawn) [Arg-Gly-Gly] | + |
| C[C@H](NC(=O)[C@@H](N)CCC(=O)O)C(=O)O [Glu-Ala] (H-Glu-Ala-OH) | - |
| N[C@@H](CCC(=O)O)C(=O)N[C@@H](CCC(=O)O)C(=O)O [Glu-Glu] (H-Glu-Glu-OH) | - |
| NCCCC[C@H](NC(=O)[C@@H](N)CCC(=O)O)C(=O)O [Glu-Lys] (H-Glu-Lys-OH) | - |
| CC(C)[C@H](NC(=O)[C@@H](N)CCC(=O)O)C(=O)N[C@@H](Cc1ccccc1)C(=O)O [Glu-Val-Phe] (H-Glu-Val-Phe-OH) | + |
| CC(C)[C@H](NC(=O)[C@@H](N)CCC(=O)O)C(=O)O [Glu-Val] (H-Glu-Val-OH) | - |
| NCC(=O)NCC(=O)NCC(=O)O [Gly-Gly-Gly] (H-Gly-Gly-Gly-OH) | + |
| NCC(=O)NCC(=O)NC(Cc1ccccc1)C(=O)O (stereo not drawn) [Gly-Gly-Phe] | + |
| NCC(=O)NCC(=O)O [Gly-Gly] (H-Gly-Gly-OH) | - |
| NCC(=O)NC(Cc1cnc[nH]1)C(=O)NCC(=O)O (stereo not drawn) [Gly-His-Gly] | + |
| CC(C)CC(NC(=O)CN)C(=O)NC(Cc1ccc(O)cc1)C(=O)O (stereo not drawn) [Gly-Leu-Tyr] (H-Gly-Leu-Tyr-OH; configuration not given here) | + |
| CC(C)CC(NC(=O)C(Cc1ccccc1)NC(=O)CN)C(=O)O (stereo not drawn) [Gly-Phe-Leu] (H-Gly-Phe-Leu-OH; configuration not given here) | + |
| CC(NC(=O)C1CCCN1C(=O)CN)C(=O)O (stereo not drawn) [Gly-Pro-Ala] | - |

| Molecule | activity |
| --- | --- |
| NCC(=O)N1CCC[C@H]1C(=O)NCC(=O)NCC(=O)O [Gly-Pro-Gly-Gly] (H-GPGG-OH) | - |
| CC(NC(=O)C(CO)NC(=O)CN)C(=O)O (stereo not drawn) [Gly-Ser-Ala] | + |
| CC(NC(=O)C(Cc1ccc(O)cc1)NC(=O)CN)C(=O)O (stereo not drawn) [Gly-Tyr-Ala] | + |
| NC(Cc1cnc[nH]1)C(=O)NCC(=O)NCC(=O)O (stereo not drawn) [His-Gly-Gly] | + |
| CC(C)C[C@H](N)C(=O)NCC(=O)NCC(=O)O [Leu-Gly-Gly, leucyl-glycyl-glycine] (H-Leu-Gly-Gly-OH) | + |
| CC(C)C[C@H](N)C(=O)NCC(=O)O [Leu-Gly] (H-Leu-Gly-OH) | - |
| CC(C)C[C@H](NC(=O)[C@H](CC(C)C)NC(=O)[C@@H](N)CC(C)C)C(=O)O [Leu-Leu-Leu, leucyl-leucyl-leucine] (H-Leu-Leu-Leu-OH) | + |
| CC(C)C[C@H](NC(=O)[C@@H](N)CC(C)C)C(=O)O [Leu-Leu] | - |
| CSCC[C@H](NC(=O)[C@@H](N)CC(C)C)C(=O)O [Leu-Met] (H-Leu-Met-OH) | - |
| CSCCC(N)C(=O)NCC(=O)NCC(=O)O (stereo not drawn) [Met-Gly-Gly] | + |
| CSCC[C@H](NC(=O)[C@H](Cc1ccccc1)NC(=O)CNC(=O)CNC(=O)[C@@H](N)Cc1ccc(O)cc1)C(=O)O [Met-enkephalin] | - |
| NCCC[C@H](NC(=O)[C@H](CCCN)NC(=O)[C@@H](N)CCCN)C(=O)O [Orn-Orn-Orn] | + |
| NC(Cc1ccccc1)C(=O)NCC(=O)NCC(=O)O (stereo not drawn) [Phe-Gly-Gly] | + |
| CC(C)C[C@H](NC(=O)[C@@H](N)Cc1ccccc1)C(=O)O [Phe-Leu] (H-Phe-Leu-OH) | - |
| O=C(O)CNC(=O)CNC(=O)C1CCCN1 (stereo not drawn) [Pro-Gly-Gly] | + |
| NC(CO)C(=O)NCC(=O)NCC(=O)O (stereo not drawn) [Ser-Gly-Gly] | + |
| CSCC[C@H](NC(=O)[C@H](CC(C)C)NC(=O)CNC(=O)[C@H](Cc1ccccc1)NC(=O)[C@H](Cc1ccccc1)NC(=O)[C@H](CCC(N)=O)NC(=O)[C@H](CCC(N)=O)NC(=O)[C@@H]1CCCN1C(=O)[C@H](CCCCN)NC(=O)[C@@H]1CCCN1C(=O)[C@@H](N)CCCNC(=N)N)C(N)=O [Substance P] | - |
| N[C@@H](Cc1c[nH]c2ccccc12)C(=O)NCC(=O)NCC(=O)O [Trp-Gly-Gly] (H-Trp-Gly-Gly-OH) | + |
| N[C@@H](Cc1ccc(O)cc1)C(=O)NCC(=O)NCC(=O)O [Tyr-Gly-Gly] (H-Tyr-Gly-Gly-OH) | + |
| CC(C)[C@H](N)C(=O)NCC(=O)NCC(=O)O [Val-Gly-Gly] (H-Val-Gly-Gly-OH) | + |
| Bradykinin (RPPGFSPFR; Bradykinin; UniProt P01042 381-389, looked up) | - |
| Neurotensin | - |
| oxidized β-chain insulin | - |

What follows are molecules tested against T1, tripeptidase of L.lactis subsp. cremoris Wg2 (assay: Effects of chemical agents on the peptidase activity (leu3 hydrolysis)). Conditions: not given.
Assay type: biochemical

| Molecule | effect on the enzyme (summary in words) | effect on the enzyme activity (in words) |
| --- | --- | --- |
| COC(CNC(=O)c1ccccc1OCC(=O)O)[CH2][Hg][OH] (stereo not shown) [Mersalyl, o-(3-hydroxymercuri-2-methoxypropyl)carbamylphenoxyacetate] | not inhibited |  |
| CCN1C(=O)C=CC1=O [NEM, N-ethylmaleimide] |  | slightly inhibited the activity |
| O=C(O)c1cc[c]([Hg][Cl])cc1 [pCMB, p-chloromercuribenzoate] | not inhibited |  |
| O=S(=O)(O)c1cc[c]([Hg][Cl])cc1 [pCMBS, p-chloromercuribenzenesulphonate] | not inhibited |  |

Same assay, conditions: NEM 0.5 mM; cystine 0.05 mM; phenylarsine oxide 0.1 mM; DTT 1 mM; β-mercaptoethanol 0.4 mM; ferricyanide 3 mM after the reducing agents

| Molecule | effect on the enzyme activity (in words) |
| --- | --- |
| O[C@H](CS)[C@H](O)CS (racemic) [DTT, dithiothreitol] | strong inhibition |
| N[C@@H](CSSC[C@H](N)C(=O)O)C(=O)O [Cystine, cystine] | had no effect on the enzyme activity |
| OCCS [β-Mercaptoethanol, β-mercaptoethanol] | strong inhibition |

Same assay, conditions: pH 7, read-out: relative activity (%)

| Molecule | activity at 500 µM |
| --- | --- |
| CCN1C(=O)C=CC1=O [NEM, N-ethylmaleimide] | 76% |

Same assay, conditions: pH 7; read-out: relative activity (%)

| Molecule | activity at 400 µM |
| --- | --- |
| OCCS [β-Mercaptoethanol, β-mercaptoethanol] | 14% |

Same assay, conditions: reagent 0.05 mM; 0.84 μg enzyme/ml, 10 min at pH 7 (20°C) before leu3 was added; none = 100; read-out: relative activity (%)

| Molecule | activity at 50 µM |
| --- | --- |
| N[C@@H](CSSC[C@H](N)C(=O)O)C(=O)O [Cystine, cystine] | 118% |

Same assay, conditions: reagent 1 mM; 0.84 μg enzyme/ml, 10 min at pH 7 (20°C) before leu3 was added; none = 100; read-out: relative activity (%)

| Molecule | activity at 1000 µM |
| --- | --- |
| O[C@H](CS)[C@H](O)CS (racemic) [DTT, dithiothreitol] | 4% |

Same assay, conditions: summary statement, concentration not given

| Molecule | effect on the enzyme (summary in words) |
| --- | --- |
| O[C@H](CS)[C@H](O)CS (racemic) [DTT, dithiothreitol] | strong inhibition |
| OCCS [β-Mercaptoethanol, β-mercaptoethanol] | strong inhibition |

Each molecule was assayed on CC(C)C[C@H](NC(=O)[C@H](CC(C)C)NC(=O)[C@@H](N)CC(C)C)C(=O)O (assay: Determination of kinetic parameters for leu3 hydrolysis (coupled enzyme reaction)). Conditions: other: leu₃ as substrate, 30°C.
Assay type: biochemical, L.lactis subsp. cremoris Wg2

| Molecule | Km | Vmax | kcat |
| --- | --- | --- | --- |
| B1 | 0.15 mM | 151 µmol/min.mg protein | 264 s⁻¹ |

The molecules below were run against T1, tripeptidase of L.lactis subsp. cremoris Wg2 (assay: biochemical). Conditions: read-out: inhibition of the enzyme activity.
Procedure: Peptidase activity was determined by measuring the release of leucine from the tripeptide leucyl-leucyl-leucine (leu₃) (2 mM in 20 mM 4-(2-hydroxyethyl)-1-piperazine-ethane-sulphonic acid [HEPES], pH 7.0). Enzyme and substrate were incubated for 10 min. at 30°C, and the release of leucine was measured by the modified cadmium-ninhydrin method as described by Doi et al., Anal.Biochem. 118, 1981, 173-184. […] Peptidase activity was determined as follows: the reaction mixture containing 2 mM substrate in 20 mM HEPES (pH 7.0) and a suitable amount of enzyme was incubated for 60 min. at 30°C.
All the metal ions were added in the form of chlorides to exclude a possible effect of the anions.

| Molecule | inhibition at 200 µM |
| --- | --- |
| O=C(O)CN(CCN(CC(=O)O)CC(=O)O)CC(=O)O [EDTA] | 79% |
